Assay results published in publication PMC10620186, “Recognition and reprogramming of E3 ubiquitin ligase surfaces by α-helical peptides” (Nature Communications, 2023).

Legend:
[1] = target: CHIP-TEAD4 ternary complex (Homo sapiens, UniProt Q15561+Q9UNE7); conditions: SPR ABA, Rmax compared with expected response
[2] = target: CHIP-PPIA ternary complex (Homo sapiens, UniProt P62937+Q9UNE7); conditions: SPR ABA, immobilized PPIA, 10 μM Helicon
VHL-ELOBC = VHL-ELOBC (Homo sapiens, UniProt P40337+Q15369+Q15370); conditions: competition FP, 15 nM VHL-ELOBC, 5 nM HXC78, 1 h room temperature, n = 2

Compound	ternary complex formation with CHIP and PPIA, of the expected response [2] [%]	other results
CC(=O)N1CCC[C@H]1C(=O)N[C@H](C(=O)N1CCC[C@H]1C(=O)N[C@@H](Cc1ccccc1)C(=O)N[C@@H](Cc1ccccc1)C(=O)N[C@@H](Cc1c[nH]c2ccccc12)C(=O)N[C@@H](CCC(=O)O)C(=O)N[C@H]1CSCC(=O)Nc2ccc(cc2)NC(=O)CSC[C@@H](C(=O)N[C@H](C(=O)N[C@@H](C)C(=O)N2CCC[C@H]2C(=O)N[C@@H](CCCNC(=N)N)C(=O)N[C@H](C(=O)N[C@@H](CCC(N)=O)C(N)=O)C(C)C)[C@@H](C)O)NC(=O)[C@H]([C@@H](C)O)NC(=O)[C@H](C)NC(=O)[C@H](C)NC(=O)[C@H](C)NC(=O)[C@H](Cc2ccccc2)NC(=O)[C@H](CCC(N)=O)NC1=O)[C@@H](C)O [Helicon H323]	–	amount of ternary complex formed, CHIP and TEAD4 [1]: 65%
CC(=O)N1CCC[C@H]1C(=O)N[C@@H](C)C(=O)N[C@@H](CCC(N)=O)C(=O)N[C@@H](CC(=O)O)C(=O)N[C@@H](CC(=O)O)C(=O)N[C@@H](Cc1c[nH]c2ccccc12)C(=O)N[C@@H](CO)C(=O)N[C@H]1CSCC(=O)Nc2ccc(cc2)NC(=O)CSC[C@@H](C(=O)N[C@@H](CCC(=O)O)C(=O)N[C@@H](CC(N)=O)C(=O)N[C@@H](Cc2ccc(O)cc2)C(=O)N[C@H](C(=O)N[C@@H](CCCNC(=N)N)C(=O)N[C@H](C(N)=O)C(C)C)C(C)C)NC(=O)[C@H](CC(C)C)NC(=O)[C@H](Cc2ccc(O)cc2)NC(=O)[C@H](C)NC(=O)[C@H](C)NC(=O)[C@H](CCC(=O)O)NC(=O)[C@H](C(C)C)NC1=O [Helicon H326]	3	–
CC[C@H](C)[C@H](NC(=O)[C@@H](NC(=O)CNC(=O)[C@H](CC(=O)O)NC(=O)[C@@H](NC(=O)[C@H](Cc1c[nH]c2ccccc12)NC(=O)[C@@H]1CSCC(=O)Nc2ccc(cc2)NC(=O)CSC[C@H](NC(=O)[C@H](CCSC)NC(=O)[C@@H]2CCCN2C(=O)[C@H](C)NC(=O)[C@H](CC(C)C)NC(=O)[C@H](CCSC)NC(=O)[C@H](CC(=O)O)NC(=O)[C@@H]2CCCN2C(C)=O)C(=O)NCC(=O)N2CCC[C@H]2C(=O)N[C@@H](C)C(=O)N[C@@H](C)C(=O)N[C@@H](CO)C(=O)N[C@@H]([C@@H](C)CC)C(=O)N1)[C@@H](C)CC)C(C)C)C(N)=O [Helicon H328]	11	–
Cc1ncsc1-c1ccc(CNC(=O)[C@@H]2C[C@@H](O)CN2C(=O)[C@@H](NC(=O)C2(C#N)CC2)C(C)(C)C)cc1 [VH298, (2S,4R)−1-((S)−2-(1-Cyanocyclopropanecarboxamido)−3,3-dimethylbutanoyl)−4-hydroxy-N-(4-(4-methylthiazol-5-yl)benzyl)pyrrolidine-2-carboxamide]	–	competition with HXC78 for binding VHL-ELOBC (VHL-ELOBC): potently competes
